This is an account of results in ChEMBL document CHEMBL2034863, “Application of MM-GB/SA and WaterMap to SRC Kinase Inhibitor Potency Prediction” (ACS Med Chem Lett, 2012).

Structures are written as SMILES.

Usually IC50 stands for the point on the concentration scale where inhibition reaches its midpoint. The low end stands for higher potency, the high end for lower potency.

In the assay the target is Proto-oncogene tyrosine-protein kinase Src (Homo sapiens, UniProt P12931).
Chain of Proto-oncogene tyrosine-protein kinase Src (P12931 2-536 limits assumed): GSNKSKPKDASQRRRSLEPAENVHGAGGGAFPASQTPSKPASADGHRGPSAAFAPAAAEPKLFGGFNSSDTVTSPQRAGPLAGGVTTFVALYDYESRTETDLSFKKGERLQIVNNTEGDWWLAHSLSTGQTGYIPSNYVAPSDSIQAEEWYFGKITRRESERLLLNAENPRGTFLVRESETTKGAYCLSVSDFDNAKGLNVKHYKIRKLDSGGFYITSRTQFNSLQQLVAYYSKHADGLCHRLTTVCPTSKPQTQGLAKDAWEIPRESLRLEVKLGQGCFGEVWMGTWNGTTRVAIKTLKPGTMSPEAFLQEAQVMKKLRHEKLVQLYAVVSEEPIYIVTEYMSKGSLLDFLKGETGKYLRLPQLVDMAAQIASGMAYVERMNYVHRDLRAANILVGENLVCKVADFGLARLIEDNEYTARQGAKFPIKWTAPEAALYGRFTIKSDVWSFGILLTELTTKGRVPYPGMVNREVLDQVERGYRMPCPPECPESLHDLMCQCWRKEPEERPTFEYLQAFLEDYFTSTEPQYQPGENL
`Cc1cccc(C)c1/C=C/n1cnc2c(Nc3ccc(P(C)(C)=O)cc3)nc(-c3ccccn3)nc21` came in with an IC50 of 0.0431 µM. Take `C=Cn1cnc2c(Nc3ccc(P(C)(C)=O)cc3)nc(N3CCC(CO)CC3)nc21`: the IC50 is 0.155 µM. For the molecule `CCn1cnc2c(Nc3ccc(P(C)(C)=O)cc3)nc(NC3CCOCC3)nc21`, the IC50 was determined as 0.0412 µM. In turn, `CCn1cnc2c(Nc3ccc(C(C)C)cc3)nc(C(C)C)nc21` returned an IC50 of 0.385 µM. `CCCP(=O)(CCC)c1ccc(Nc2nc(C(C)C)nc3c2ncn3CC)cc1` yielded an IC50 of 0.0039 µM. For `CCn1cnc2c(Nc3ccc(P(C)(C)=O)cc3)nc(C(C)C)nc21` the value was 0.0251 µM; for `C=Cn1cnc2c(Nc3ccc(P(C)(C)=O)cc3)ncnc21`, 1 µM. For `C=Cn1cnc2c(Nc3ccc(P(C)(C)=O)cc3)nc(OC3CCOC3)nc21` (centres undefined), the IC50 was 0.188 µM. Consider `CCCCP(=O)(CCCC)c1ccc(Nc2nc(C(C)C)nc3c2ncn3CC)cc1`, for which half-maximal inhibition (IC50) was put at 0.0088 µM.
